Measured values: patent US20070142412A1, “Crystalline form of 2-{4-['3-(4-chloro-2-fluorophenyl)-4-pyrimidin-4-yl-1h-pyrazol-5-yl]piperidin-1-yl}-2-oxoethanol” (priority 2003, published 2007)

Assay: Moisture sorption analysis (DVS) followed by PXRD
Format: physicochemical
Settings: 25° C.
Method: The moisture sorption profile of the sample was determined using a Surface Measurement System (SMS) DVS-1 Automated Water Sorption Analyzer operating via SMS Software version 2.16. The change in mass of the sample versus relative humidity (RH) was monitored at 25° C. using a method from 30% to 0%, 0% to 90%, 90% to 0%, and 0% to 30% RH in 10% RH steps with dm/dt=3×10^−4. Maximum hold time per step was 4 hours. An approximately 15 mg sample was loaded onto the sample holder. The balance was calibrated with a 100 mg standard weight at 25° C. HPLC-grade water was used for the study. It is believed that about 0.5% water is believed to be surface bound moisture. To investigate the hydration state of the Form 1 hydrate, moisture sorption analysis was performed. At the conclusion of the study, the sample was removed from the moisture sorption balance and analyzed by PXRD. […] Constant mass was not obtained at 0% RH in the moisture sorption study; therefore, an additional moisture sorption study was conducted with increase maximum hold time per step to allow the sample to reach equilibrium over the low RH range. […] This theory is in no way to be construed as limiting.

Change in PXRD diffraction pattern after moisture sorption analysis (cycled 30% to 0%, 0% to 90%, 90% to 0%, 0% to 30% RH in 10% RH steps): No change was observed | Water content indicated by moisture sorption data (at least 0.5% thought to be surface bound moisture): approximately 5.5%
Structure (SMILES): O=C(CO)N1CCC(c2[nH]nc(-c3ccc(Cl)cc3F)c2-c2ccncn2)CC1 [Form 1 hydrate, 2-{4-[3-(4-chloro-2-fluorophenyl)-4-pyrimidin-4-yl-1H-pyrazol-5-yl]piperidin-1-yl}-2-oxoethanol]
